According to PMC12608245, “Integrated Molecular and Functional Analysis of Hop Ethanolic Extract in Caco-2 Cells: Insights into Inflammation, Barrier Function, and Transport” (International Journal of Molecular Sciences, 2025):

Tests used:
IL-6 [1] = assay: IL-6 production in IL-1β-stimulated Caco-2 cells (ELISA); type: cell-based; details: IL-1β 10 ng/mL, 24 h
Description: (§1) Caco-2 cells were seeded in 48-well plates and cultured as described above. […] Prior to application, HLE was dissolved in DMSO and sterilely transferred into fresh serum-free medium. To remove high-molecular-weight pyrogens, the extract was subjected to a two-step ultrafiltration using a Microsep™ Advance Centrifugal Device with 30 kDa and 100 kDa cut-offs (Pall Corporation, Port Washington, NY, USA), as described in Kruk et al.. After ultrafiltration, 10% FBS was added to the medium. Following a one-hour pre-incubation, IL-1β was added to each well to achieve a final concentration of 10 ng/mL. After 24 h of incubation, the supernatants were collected, and IL-6 and IL-8 concentrations were determined using the sandwich ELISA method (BD Biosciences Pharmingen).

Caco-2 monolayers [2] = assay: Transport and metabolism of HLE constituents through Caco-2 monolayers; type: in vitro ADME; details: apical to basolateral, 24 h incubation of HLE with Caco-2, based on the peak area ratio
Description: Caco-2 cells were seeded and cultivated as described for the TEER measurements. After 21 days of cultivation, HLE solutions at concentrations of 12.5–100 µg/mL (prepared as for the cell viability assay) were added to the apical compartment. As a non-treated control, medium containing 0.5% DMSO was used. Supernatants from both the apical and basolateral compartments were collected at 0 h and 24 h for chromatographic analysis.
Analyses were performed using a Vanquish UHPLC system coupled with an Exploris 120 Orbitrap mass spectrometer (Thermo Scientific, Bremen, Germany) equipped with a Kinetex XB-C18 column (150 × 2.1 mm, 1.7 µm). Mobile phases consisted of (A) water and (B) acetonitrile:water (4:1, v/v), both containing 0.1% HCOOH and 5 mM NH4HCOO. […] Electrospray settings: spray voltage 3.5 kV (+)/2 kV (−); sheath/aux/sweep gas 48/11/2 Arb; ion transfer tube 320 °C; vaporizer 280 °C. Data were acquired in full-scan mode (resolution 120,000, polarity switching). MS2 spectra were obtained using stepped NCE 30/50% (resolution 15,000) and ddMS2 settings of four fragmentation scans per full scan, single-charge filter, isotope and dynamic exclusion enabled. Experimental samples were analyzed with and without fragmentation exclusion lists generated from control samples to enhance MS2 coverage. Data processing was performed in Compound Discoverer 3.4 (Thermo Scientific, Austin, TX, USA). Signals corresponding to hop extract constituents were identified based on comparison of donor compartment solution and method blank. Similarity analysis and molecular networking (mzMine 4.6) were based on shared fragments or constant m/z shifts.

IL-8 [3] = assay: IL-8 production in IL-1β-stimulated Caco-2 cells (ELISA); type: cell-based; details: IL-1β-stimulated control, IL-1β 10 ng/mL, 24 h
Description: as §1

Caco-2 monolayers [4] = assay: TEER measurement of Caco-2 monolayer; type: cell-based; details: for TEER: IL-1β control
Description: Caco-2 cells were cultivated in 6-well plates on a Transwell transparent insert (Greiner Bio-One, Kremsmünster, Austria) with density of 6 × 10^5 cells/insert for 21 days. (37 °C, 5% CO2) Medium that was used contained the earlier mentioned ingredients. Three mL of medium was added to the apical compartment, and 3.5 mL was added to the basolateral compartment. The medium was replaced three times per week. CellZscope systems for 24-well and 6-well formats (nanoAnalytics GmbH, Münster, Germany) were used to analyze the TEER. Solutions were made as described in Section 4.5 with concentrations 12.5–100 µg/mL. As non-treated control, medium containing 0.5% DMSO was used. The medium in the apical compartment was replaced with the HLE solutions or control. After a 24-h incubation period 25 ng/mL of IL-1β was added in basolateral compartment.

IL-6 [5] = assay: Caco-2 inflammatory model selection, IL-6 production (ELISA); type: cell-based; details: IL-1β 25 and 12.5 ng/mL, 24 h
Description: (§2) Cells were seeded in 48-well plates and cultured as described above. After reaching 100% confluence, they were stimulated with different concentrations and combinations of the following factors: TNF-α (1, 12.5, 25 ng/mL), LPS from E. coli (1, 5, 10 µg/mL), IFN-γ (1, 10, 50 ng/mL), a mixture of IFN-γ and TNF-α (1 + 1, 10 + 10, 50 + 50 ng/mL), and IL-1β (0.01, 0.02, 0.04, 0.08, 1, 12.5, 25 ng/mL). […] After 24 h of incubation, the supernatants were collected, and IL-6 and IL-8 concentrations were determined using the sandwich ELISA method (BD Biosciences Pharmingen, San Diego, CA, USA).

IL-8 [6] = assay: Caco-2 inflammatory model selection, IL-8 production (ELISA); type: cell-based; details: 24 h
Description: as §2

Caco-2 monolayers [7] = tested on: Caco-2 monolayers; parameters: method as in Van de Walle et al. [20]; details: IL-1β 25 ng/mL, Caco-2 cell monolayers; ref Van de Walle et al. [20]; cited from earlier work

| Transport Efficiency (%) (Caco-2 monolayers [2]) | Compound | further results |
| --- | --- | --- |
|  | C[C@@H]1C[C@H]2[C@@H]3CCC4=CC(=O)C=C[C@]4(C)[C@@]3(F)[C@@H](O)C[C@]2(C)[C@@]1(O)C(=O)CO [Dexamethasone, reference compound] | IL-6 level (IL-6 [1]; dexamethasone 20 µM (positive control), compared with the IL-1β-stimulated control): 3.7 ± 0.3% |
| 9 | CC(C)=CCC(=O)[C@@]1(O)C(=O)C(C(=O)C(C)C)=C(O)[C@@]1(O)CC=C(C)C [Peak M10, cohumulinone] |  |
| 3.5 | COc1cc(O)c(CC=C(C)C)c(O)c1C(=O)/C=C/c1ccc(O)cc1 [Peak M13, xanthohumol] |  |
| 9.5 | CC(C)=CCC1=C(O)C(O)(CC=C(C)C)C(=O)C(C(=O)C(C)C)=C1O (stereo not drawn) [Peak M14, cohumulone] |  |
| 4.3 | CC(C)=CCC1=C(O)C(O)(CC=C(C)C)C(=O)C(C(=O)CCC(C)C)=C1O (stereo not drawn) [Peak M17, prehumulone] |  |
|  | IL-1β: pro-inflammatory cytokine used as inflammatory trigger | IL-6 level (IL-6 [1]; IL-1β-stimulated control): 103.3 ± 1.7%; IL-8 level (IL-8 [3]): 100.8 ± 5.5%; TEER (Caco-2 monolayers [4]; 33 h): 83.97 ± 4.20%; TEER (Caco-2 monolayers [4]; 42 h): 84.25 ± 1.33%; TEER value decrease (Caco-2 monolayers [4]; after 24 h of exposure to 25 ng/mL IL-1β): 16 ± 1%; IL-6 secretion versus non-treated control (IL-6 [5]): increase IL-6 at concentrations of 25 and 12.5 ng/mL significantly; IL-8 secretion versus non-treated control (IL-8 [6]; IL-1β 25, 12.5, 1, 0.08 and 0.04 ng/mL): significantly increased IL-8 secretion; TEER reduction (Caco-2 monolayers [7]): approximately 20 ± 4% |
|  | TNF-α | IL-8 secretion versus non-treated control (IL-8 [6]; TNF-α 25 and 12.5 ng/mL): significantly increased IL-8 secretion |
| 3.7 | hulupone/adhulupone [Peak M4] |  |
| 17.4 | hydroxy-n-humulinone/hydroxyadhumolinone [Peak M11] |  |
| 6.9 | n-humulinone/adhumulinone isomer 1 [Peak M7] |  |
| 11.7 | n-humulinone/adhumulinone isomer 2 [Peak M12] |  |
| 8 | n-humulone/adhumulone isomer 1 [Peak M15] |  |
| 9.6 | n-humulone/adhumulone isomer 2 [Peak M16] |  |
| 2 | tetrahydro-iso-α-acid [Peak M6] |  |
